Results on 17 compounds are retold here after US11180474B2 (BRISTOL-MYERS SQUIBB COMPANY, priority 2016, dated 2021).

What is called IC50 is the midpoint of a concentration-inhibition curve. High values mean weaker potency in that assay, low ones greater potency in that assay.

One assay deals with T1, human TLR7 (Homo sapiens, UniProt Q9NYK1).
T1 construct: host or cells: HEK-Blue cells
T1 sequence (Q9NYK1 27-1049): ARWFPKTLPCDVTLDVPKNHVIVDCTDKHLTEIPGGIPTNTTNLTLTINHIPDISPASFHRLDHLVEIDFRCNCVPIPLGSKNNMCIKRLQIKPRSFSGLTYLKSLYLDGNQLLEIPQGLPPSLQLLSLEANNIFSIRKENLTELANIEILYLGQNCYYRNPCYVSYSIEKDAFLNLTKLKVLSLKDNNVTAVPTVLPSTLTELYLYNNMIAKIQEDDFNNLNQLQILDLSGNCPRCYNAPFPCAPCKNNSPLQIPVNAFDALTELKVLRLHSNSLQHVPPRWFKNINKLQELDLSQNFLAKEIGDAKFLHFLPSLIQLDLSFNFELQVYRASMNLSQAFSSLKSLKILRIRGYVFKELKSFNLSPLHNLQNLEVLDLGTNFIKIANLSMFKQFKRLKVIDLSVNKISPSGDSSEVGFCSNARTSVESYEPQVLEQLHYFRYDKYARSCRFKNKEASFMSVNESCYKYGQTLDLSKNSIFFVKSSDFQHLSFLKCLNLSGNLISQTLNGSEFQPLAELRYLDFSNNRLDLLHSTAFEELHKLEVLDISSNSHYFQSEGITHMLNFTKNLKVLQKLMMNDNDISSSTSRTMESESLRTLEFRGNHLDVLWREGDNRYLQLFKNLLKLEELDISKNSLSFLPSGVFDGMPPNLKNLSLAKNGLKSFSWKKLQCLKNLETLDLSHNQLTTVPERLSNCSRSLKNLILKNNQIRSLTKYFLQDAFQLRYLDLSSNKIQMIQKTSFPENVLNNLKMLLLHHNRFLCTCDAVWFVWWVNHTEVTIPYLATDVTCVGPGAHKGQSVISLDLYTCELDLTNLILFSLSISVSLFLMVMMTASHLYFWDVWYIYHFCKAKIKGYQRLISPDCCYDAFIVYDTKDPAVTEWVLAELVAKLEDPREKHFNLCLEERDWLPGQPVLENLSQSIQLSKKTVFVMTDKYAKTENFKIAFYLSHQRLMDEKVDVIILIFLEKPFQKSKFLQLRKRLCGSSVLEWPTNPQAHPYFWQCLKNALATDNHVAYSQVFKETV
The assay is described as follows: TLR7 inhibition reporter assay (HEK-Blue cells, SEAP reporter, gardiquimod stimulation). The format is cell-based. Particulars: HEK-Blue cells overexpressing human TLR7, gardiquimod 7.5 μM. The essentials:
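In this cell reporter format, test compounds at 0.05 nM-50 μM final incubate 22 h with seeded cells (TLR7 15000, TLR8 20,000 per well). SEAP read-out by HEK-Blue Detection medium yields % inhibition relative to agonist/DMSO and known-inhibitor wells.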

For another assay, the target named is T2, human TLR9 (Homo sapiens, UniProt Q9NR96).
T2 construct: host or cells: HEK-Blue cells
T2 sequence (Q9NR96 26-1032): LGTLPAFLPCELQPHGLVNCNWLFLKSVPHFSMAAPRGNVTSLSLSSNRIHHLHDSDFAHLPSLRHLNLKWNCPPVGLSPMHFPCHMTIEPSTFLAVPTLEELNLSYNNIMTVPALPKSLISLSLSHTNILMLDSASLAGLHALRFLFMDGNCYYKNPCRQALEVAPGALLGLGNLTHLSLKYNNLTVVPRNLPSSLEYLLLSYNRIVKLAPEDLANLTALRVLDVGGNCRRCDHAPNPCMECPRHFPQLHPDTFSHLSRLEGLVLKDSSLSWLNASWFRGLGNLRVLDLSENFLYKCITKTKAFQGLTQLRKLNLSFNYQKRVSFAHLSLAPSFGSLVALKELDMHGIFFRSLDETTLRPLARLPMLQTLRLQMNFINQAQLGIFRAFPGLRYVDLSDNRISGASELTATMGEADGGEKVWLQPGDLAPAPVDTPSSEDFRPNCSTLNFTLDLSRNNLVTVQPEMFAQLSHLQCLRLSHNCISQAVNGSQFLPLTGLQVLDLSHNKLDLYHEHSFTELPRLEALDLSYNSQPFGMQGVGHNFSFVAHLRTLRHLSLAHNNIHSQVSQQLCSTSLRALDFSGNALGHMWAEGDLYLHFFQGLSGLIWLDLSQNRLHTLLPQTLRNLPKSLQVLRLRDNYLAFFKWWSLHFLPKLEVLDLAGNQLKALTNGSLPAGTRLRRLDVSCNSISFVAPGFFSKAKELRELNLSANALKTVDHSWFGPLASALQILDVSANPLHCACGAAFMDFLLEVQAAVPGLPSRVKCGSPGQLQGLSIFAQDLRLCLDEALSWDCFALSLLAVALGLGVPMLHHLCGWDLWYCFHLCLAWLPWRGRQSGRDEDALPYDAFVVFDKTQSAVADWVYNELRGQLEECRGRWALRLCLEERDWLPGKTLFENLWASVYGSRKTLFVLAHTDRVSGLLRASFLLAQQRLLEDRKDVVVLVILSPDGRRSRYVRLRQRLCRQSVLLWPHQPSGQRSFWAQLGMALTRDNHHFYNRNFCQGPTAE
As to the kind of experiment: TLR9 inhibition reporter assay (HEK-Blue cells, SEAP reporter, ODN2006 stimulation). Format: cell-based. Particulars: HEK-Blue cells overexpressing human TLR9, ODN2006 5 nM. The method, boiled down:
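Dose–response from 0.05 nM to 50 μM was run in HEK-Blue human TLR7, TLR8 and TLR9 reporter cells. After 30 min at room temperature with compound, ligand was added (TLR7 gardiquimod 7.5 μM; TLR8 R848 15.9 μM; TLR9 ODN2006 5 nM) and SEAP measured next day, at 22 h.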

SMILES strings stand for the structures.

`COc1ccc(-c2[nH]c3ccc(C4CCN(CC(=O)N5CCC[C@@H]5CO)CC4)cc3c2CC(F)(F)F)cc1OC` [Example 371, (R)-2-(4-(2-(3,4-dimethoxyphenyl)-3-(2,2,2-trifluoroethyl)-1H-indol-5-yl)piperidin-1-yl)-1-(2-(hydroxymethyl)pyrrolidin-1-yl)ethan-1-one]: the concentration for half-maximal inhibition (IC50) stood at 79 nM against human TLR7 and 2460 nM against human TLR9.

In the case of `COc1ccc(-c2[nH]c3ccc(C4CCN(C(=O)CCCn5ccnc5)CC4)cc3c2CC(F)(F)F)cc1OC` [Example 331, 1-(4-(2-(3,4-dimethoxyphenyl)-3-(2,2,2-trifluoroethyl)-1H-indol-5-yl)piperidin-1-yl)-4-(1H-imidazol-1-yl)butan-1-one], the IC50 on human TLR7 was 33 nM; on human TLR9, 5230 nM.

Consider `CCNC(=O)N1CCC(c2ccc3[nH]c(-c4ccc(OC)c(OC)c4)c(CC(F)(F)F)c3c2)CC1` [Example 356, 4-(2-(3,4-dimethoxyphenyl)-3-(2,2,2-trifluoroethyl)-1H-indol-5-yl)-N-ethylpiperidine-1-carboxamide], for which the IC50 against human TLR7 is 618 nM; against human TLR9, not below 50000 nM.

For the compound `COc1ccc(-c2[nH]c3ccc(C4CCN(CC(=O)N5CCC(N6CCCCC6)CC5)CC4)cc3c2CC(F)(F)F)cc1OC` [Example 359, 1-([1,4′-bipiperidin]-1′-yl)-2-(4-(2-(3,4-dimethoxyphenyl)-3-(2,2,2-trifluoroethyl)-1H-indol-5-yl)piperidin-1-yl)ethan-1-one], the figures for the 50% inhibitory concentration (IC50) against human TLR7 and on human TLR9 were 19 nM and 267 nM, respectively.

Take `COc1ccc(-c2[nH]c3ccc(C4CCN(CC(=O)N5CCN(C(C)C)CC5)CC4)cc3c2CC(F)(F)F)cc1OC` [Example 362, 2-(4-(2-(3,4-dimethoxyphenyl)-3-(2,2,2-trifluoroethyl)-1H-indol-5-yl)piperidin-1-yl)-1-(4-isopropylpiperazin-1-yl)ethan-1-one]: the 50% inhibitory concentration (IC50) came to 65 nM on human TLR7 and 1150 nM against human TLR9.

With `COc1ccc(-c2[nH]c3ccc(C4CCNCC4F)cc3c2C(C)C)cc1OC` (racemic) [Example 320, 2-(3,4-dimethoxyphenyl)-5-(3-fluoropiperidin-4-yl)-3-isopropyl-1H-indole], the figures for the IC50 on human TLR7 and against human TLR9 were 71 nM and 5020 nM, respectively.

With `COc1ccc(-c2[nH]c3ccc(C4CCN(CC(=O)Nc5cc(C(C)(C)C)[nH]n5)CC4)cc3c2CC(F)(F)F)cc1OC` [Example 387, N-(5-(tert-butyl)-1H-pyrazol-3-yl)-2-(4-(2-(3,4-dimethoxyphenyl)-3-(2,2,2-trifluoroethyl)-1H-indol-5-yl)piperidin-1-yl)acetamide], the IC50 against human TLR7 is 994 nM; on human TLR9, 8430 nM.

On to `COc1ccc(-c2[nH]c3ccc(C4CCN(CC(=O)NCCCn5ccnc5)CC4)cc3c2CC(F)(F)F)cc1OC` [Example 383, N-(3-(1H-imidazol-1-yl)propyl)-2-(4-(2-(3,4-dimethoxyphenyl)-3-(2,2,2-trifluoroethyl)-1H-indol-5-yl)piperidin-1-yl)acetamide], for which the figures for the IC50 at human TLR7 and against human TLR9 were 13 nM and 660 nM, respectively.

For the compound `COc1ccc(-c2[nH]c3ccc(C4CCN(CC(=O)NCCc5ccc(S(N)(=O)=O)cc5)CC4)cc3c2CC(F)(F)F)cc1OC` [Example 384, 2-(4-(2-(3,4-dimethoxyphenyl)-3-(2,2,2-trifluoroethyl)-1H-indol-5-yl)piperidin-1-yl)-N-(4-sulfamoylphenethyl)acetamide], the values for the IC50 on human TLR7 and against human TLR9 were 150 nM and 2310 nM, respectively.

In the case of `COc1ccc(-c2[nH]c3ccc(C4CCN(C(=O)CN[C@H](C)C(C)C)CC4)cc3c2C2CCOCC2)cc1OC` [Example 394, (R)-1-(4-(2-(3,4-dimethoxyphenyl)-3-(tetrahydro-2H-pyran-4-yl)-1H-indol-5-yl)piperidin-1-yl)-2-((3-methylbutan-2-yl)amino)ethan-1-one], the values for the IC50 on human TLR7 and at human TLR9 were 1390 nM and 2760 nM, respectively.

Take `COc1ccc(-c2[nH]c3ccc(C4CCN(C(=O)CCn5cccc5)CC4)cc3c2CC(F)(F)F)cc1OC` [Example 344, 1-(4-(2-(3,4-dimethoxyphenyl)-3-(2,2,2-trifluoroethyl)-1H-indol-5-yl)piperidin-1-yl)-3-(1H-pyrrol-1-yl)propan-1-one]: the IC50 at human TLR7 was 881 nM; against human TLR9, not below 50000 nM.

Turning to `COc1ccc(-c2[nH]c3ccc(C4CCNCC4F)cc3c2C(C)C)cc1OC` (single isomer, unassigned) [Example 321, 2-(3,4-dimethoxyphenyl)-5-(3-fluoropiperidin-4-yl)-3-isopropyl-1H-indole], the IC50 at human TLR7 amounted to 22 nM; against human TLR9, 4500 nM.

As to `COc1ccc(-c2[nH]c3ccc(C4CCN(C(=O)CCN5CCCCC5)CC4)cc3c2CC(F)(F)F)cc1OC` [Example 330, 1-(4-(2-(3,4-dimethoxyphenyl)-3-(2,2,2-trifluoroethyl)-1H-indol-5-yl)piperidin-1-yl)-3-(piperidin-1-yl)propan-1-one], the results for the IC50 against human TLR7 and on human TLR9 were 57 nM and 1610 nM, respectively.

Take `COc1ccc(-c2[nH]c3ccc(C4CCN(CC(=O)NCCS(=O)(=O)O)CC4)cc3c2CC(F)(F)F)cc1OC` [Example 386, 2-(2-(4-(2-(3,4-dimethoxyphenyl)-3-(2,2,2-trifluoroethyl)-1H-indol-5-yl)piperidin-1-yl)acetamido)ethane-1-sulfonic acid]: the figures for the IC50 at human TLR7 and at human TLR9 were 557 nM and not below 50000 nM, respectively.

In the case of `COc1ccc(-c2[nH]c3ccc(C4CCN(CC(=O)NCCN5CCCC5)CC4)cc3c2CC(F)(F)F)cc1OC` [Example 375, 2-(4-(2-(3,4-dimethoxyphenyl)-3-(2,2,2-trifluoroethyl)-1H-indol-5-yl)piperidin-1-yl)-N-(2-(pyrrolidin-1-yl)ethyl)acetamide], the results for the concentration for half-maximal inhibition (IC50) on human TLR7 and against human TLR9 were 29 nM and 701 nM, respectively.

Regarding `COc1ccc(-c2[nH]c3ccc(C4CCN(CC(=O)N(C)C5CCN(C)C5)CC4)cc3c2CC(F)(F)F)cc1OC` (stereo not shown) [Example 370, 2-(4-(2-(3,4-dimethoxyphenyl)-3-(2,2,2-trifluoroethyl)-1H-indol-5-yl)piperidin-1-yl)-N-methyl-N-(1-methylpyrrolidin-3-yl)acetamide], the concentration for half-maximal inhibition (IC50) worked out at 27 nM against human TLR7 and 399 nM against human TLR9.

`COc1ccc(-c2[nH]c3ccc(C4CCN(C(=O)CCC(F)(F)F)CC4)cc3c2CC(F)(F)F)cc1OC` [Example 350, 1-(4-(2-(3,4-dimethoxyphenyl)-3-(2,2,2-trifluoroethyl)-1H-indol-5-yl)piperidin-1-yl)-4,4,4-trifluorobutan-1-one]: the IC50 on human TLR7 was 624 nM; against human TLR9, not below 50000 nM.
